We go through one compound from paper PMC12089418, “Quantifying VMAT2 target occupancy at effective valbenazine doses and comparing to a novel VMAT2 inhibitor: a translational PET study” (Neuropsychopharmacology, 2025).

The experiment deals with VMAT2 (Macaca fascicularis, UniProt A0A2K5UVB8). The experiment in a line: NHP [18F]AV-133 PET target occupancy. In kind it is in vivo, cynomolgus macaques. The settings on record: for EC50: Emax model. As for the experimental part: Each NHP PET study enrolled two to three cynomolgus macaques, (3.8–9 year age range).
VMAT2, sequence (A0A2K5UVB8 entry or part of it): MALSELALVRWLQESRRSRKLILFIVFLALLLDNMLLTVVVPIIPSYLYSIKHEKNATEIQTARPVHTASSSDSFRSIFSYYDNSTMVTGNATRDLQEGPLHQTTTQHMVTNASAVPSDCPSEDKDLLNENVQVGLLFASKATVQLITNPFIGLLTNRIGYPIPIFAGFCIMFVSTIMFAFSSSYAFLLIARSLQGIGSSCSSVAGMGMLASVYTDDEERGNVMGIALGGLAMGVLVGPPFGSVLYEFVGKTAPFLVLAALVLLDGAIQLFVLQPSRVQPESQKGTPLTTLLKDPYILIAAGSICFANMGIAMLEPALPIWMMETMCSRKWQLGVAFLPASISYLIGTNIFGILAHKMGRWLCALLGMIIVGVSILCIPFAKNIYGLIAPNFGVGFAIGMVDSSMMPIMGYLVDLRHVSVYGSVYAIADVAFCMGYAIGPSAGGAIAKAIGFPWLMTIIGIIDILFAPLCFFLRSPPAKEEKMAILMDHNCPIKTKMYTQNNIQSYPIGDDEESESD
NHPs fasted overnight before individual PET scans. For the NBI-750142 study, 60 min prior to NBI-750142 or vehicle administration, animals were sedated with an intramuscular injection of 2 mg/kg Aflaxan, 0.02 mg/kg dexmedetomidine, and 0.3 mg/kg midazolam. The animals were intubated with an endotracheal tube for continued delivery of oxygen (1.5–2.5 L) and 1.0–2.5% isoflurane for anesthesia maintenance.
The animals were intubated with an endotracheal tube for continued delivery of isoflurane for anesthesia maintenance.
For all NHP PET scans, blocking compound was administered with a bolus loading dose, followed by constant intravenous infusion over 3 h, with the goal of achieving steady-state plasma exposure. One hour after blocking compound or vehicle administration, [^18F]AV-133 was administered as an intravenous bolus. Dynamic PET data were acquired with a MicroPET Focus-220 camera (Siemens Microsystems, Knoxville, TN) for 120 min post injection and reconstructed into a series of 33 frames and all standard corrections were applied for normalization, randoms, scatter, and attenuation. Brain PET images were analyzed using PMOD software package v3.802 (PMOD Technologies, Zurich, Switzerland). […]
During each scan, 1 mL whole blood PK samples were collected (in K2 EDTA tubes) at multiple time points. Blocking compound concentration in plasma samples were analyzed using validated LC-MS/MS bioanalytical methods. […] The average plasma concentration, Cave, was calculated as the mean compound concentration of samples collected during the PET scan and used for PK-TO analysis.
Time-activity curves were generated for the caudate, putamen, and cerebellum. Non-displaceable binding potential (BPND) was estimated using non-invasive Logan graphical analysis with cerebellum as reference region. %TO of the blocking compound was calculated in the caudate and putamen using baseline and post-dose BPND as follows:1 %TO=1−BPNDpost−block/BPNDbaselinex100 […]

Read-outs that look alike come from different tables or passages of the source.

As for `COc1cc2c(cc1OC)[C@H]1CN(C)[C@H](CC(C)(C)C)CN1CC2` [NBI-750142], for the setting “NHP, free PET EC50 over in vitro Ki”, the “EC50:Ki Ratio” value worked out at 1.1. In addition, the EC50 (total compound Cave during 120-min scan, read-out: EC50 (average total plasma concentration vs %TO) (converted)) is 33.1 nM and the EC50 (total concentration multiplied by fu_p, read-out: free EC50 (free plasma concentration vs %TO) (converted)) is 20.2 nM.
